Here are results for 16 compounds from patent US20130324522A1, “INSECT ODORANT RECEPTOR ANTAGONISTS” (THE ROCKEFELLER UNIVERSITY, priority 2010, published 2013).

Holding throughout (assay type): cell-based
In one test the target is OR8/OR7 (Anopheles gambiae, UniProt Q7PUT5+Q7QCC7). As to the kind of experiment: Ca2+-imaging of stable HEK293T cell line OR8/OR7. The following applies: for inhibition at 4 µM: HEK-293T, compound applied at 4 μM, read-out: Percent Inhibition OR8 OR7; for IC50: Table B, read-out: IC50 OR8. The method, then: (§1) Full-length cDNAs for mosquito (Anopheles gambiae) odorant receptor (OR1, OR2, OR7, OR8, OR28), and fly (Drosophila melanogaster) odorant receptor (Or47a, Or83b), mouse TRP channel (TRPM8), and mouse serotonin receptor (5HT3) were obtained and subcloned into mammalian expression vectors. The following mammalian expression vectors were used:
Stable cell lines OR1/OR7, OR2/OR7, OR8/OR7, OR10/OR7, OR28/OR7 and TRPM8 were generated from HEK293T cells. HEK293T-based cell lines were cultured in DMEM supplemented with these additional antibiotics: 6 μg/mL blasticidin and 1 μg/mL puromycin, with the exception of the TRPM8 cell lines, which was cultured in DMEM supplemented with 1 μg/mL puromycin.
Cells were trypsinized and split into 35 mm dishes one day before transfection. Confluent cells (60-70%) in 35 mm dishes were transfected with 1 μg of insect OR(X) plasmids in pME18s-bla and 1 μg of OR7-pME18s-puro using lipofectamine 2000. For Anopheles odorant receptors, two plasmids were co-transfected into HEK cells: the ligand-specific receptor (OR1, OR2, OR8, OR28) and the corresponding olfactory co-receptor: OR7. Cell lines containing TRPM8 were transfected with single plasmid.
(§2) Stable cell lines were cultured in 10 cm dishes, and confluent cells (70-80%) were trypsinized. 10,000 cells/20 μL were transferred into each well of 384-well plates coated with poly-D-lysine, and cultured for 2 days. For Flip-In T-Rex cells (cell lines expressing Or47a/Or83b and 5HT3), 5 μL of tetracycline (5 μg/mL) were added 1 day before the assay. 20 μL of Ca-4 dye was loaded into each well for 1.5 hr at room temperature in the dark, and the dye-loaded plates were subjected to Ca^2+-imaging using a Hamamatsu FDSS6000 real time fluorescence plate reader. Odorant solutions (9× final concentration) were prepared by dissolving 1M stock solutions into Hank's Buffered Salt Solution (HBSS), and 30 μL of odor solution was transferred to each well in 384-well plates.
(§3) Compounds ([…] in DMSO) were stored in 384-well plates, and last two columns (32 wells total) contained only DMSO. 200 nL of small compounds were transferred into the odorant plates before the assay using the Perkin-Elmer Janus workstation. The odorant plates were spun down to remove air bubbles, and placed on the FDSS6000 plate loader, and 5 μL of odorant solution was applied to the cell plate on the FDSS6000. Ca^2+ increase was monitored with fluorescence at 525 nm by excitation at 485 nm.

Test [1] concerns the target T1, serotonin receptor (5HT3) (Mus musculus, UniProt P23979).
T1 construct: Full-length cDNAs for mosquito (Anopheles gambiae) odorant receptor; expressed in transfected cells
T1 sequence (P23979 24-489): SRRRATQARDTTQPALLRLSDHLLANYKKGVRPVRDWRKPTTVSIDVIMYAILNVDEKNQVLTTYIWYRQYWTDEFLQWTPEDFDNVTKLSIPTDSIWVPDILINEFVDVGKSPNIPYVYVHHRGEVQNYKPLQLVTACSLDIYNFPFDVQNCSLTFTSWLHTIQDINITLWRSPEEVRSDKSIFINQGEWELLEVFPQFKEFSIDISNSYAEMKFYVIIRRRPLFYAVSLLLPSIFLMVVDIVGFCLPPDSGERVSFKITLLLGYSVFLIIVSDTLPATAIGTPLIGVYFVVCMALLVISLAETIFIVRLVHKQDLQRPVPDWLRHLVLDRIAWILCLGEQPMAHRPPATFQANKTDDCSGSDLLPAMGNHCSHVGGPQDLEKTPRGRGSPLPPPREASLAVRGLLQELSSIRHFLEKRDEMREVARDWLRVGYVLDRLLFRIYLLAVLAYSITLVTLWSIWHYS
Nature of the test: Ca2+-imaging of stable Flip-In T-Rex cell line 5HT3. Particulars: for inhibition at 4 µM: compound applied at 4 μM, read-out: Percent Inhibition 5HT3; for IC50: Table B, read-out: IC50 5HT3. The method, then: as §1
Stable cell lines Or47a/Or83b and 5HT3 were generated from Flip-In T-Rex cells. Flip-In T-Rex-based cell lines were cultured in DMEM supplemented with these additional antibiotics: 6 μg/mL blasticidin and 100 μg/mL hygromycin.
Cells were trypsinized and split into 35 mm dishes 1 day before transfection. Confluent cells (60-70%) in 35 mm dishes were co-transfected with 1 μg of Or47a/Or83b plasmid in pcDNA5/FRT/TO/IRES plus the pOG44 plasmid or 1 μg of 5HT3 plasmid in pcDNA5/FRT/TO plus the pOG44 plasmid using lipofectamine 2000. Co-transfection of pOG44 and pcDNA5/FRT/TO/IRES or pcDNA5/FRT/TO allows expression of Flp recombinase and integration of the pcDNA5 plasmid into the genome via the FRT site. After one day of incubation, the transfected cells were transferred into 10 cm dishes with DMEM containing antibiotics: 20 μg/mL of hygromycin and 6 μg/mL of blasticidin. The concentration of Hygromycin was increased to 100 μg/mL when the population of cells became 30-40% confluent. The cells were cultured by changing medium every two days until cell clumps appeared. The clumps were picked and transferred into 96 well plates with DMEM containing 100 μg/mL of Hygromycin and 6 μg/mL of blasticidin. The cells were grown and transferred to 24 well plates, and ligand-evoked calcium increases were tested using the Hamamatsu FDSS6000 real time fluorescence plate reader.
as §2, §3

The target in the next test is T2, mOREG (Mus musculus, UniProt Q920P2).
T2 sequence (Q920P2 1-313): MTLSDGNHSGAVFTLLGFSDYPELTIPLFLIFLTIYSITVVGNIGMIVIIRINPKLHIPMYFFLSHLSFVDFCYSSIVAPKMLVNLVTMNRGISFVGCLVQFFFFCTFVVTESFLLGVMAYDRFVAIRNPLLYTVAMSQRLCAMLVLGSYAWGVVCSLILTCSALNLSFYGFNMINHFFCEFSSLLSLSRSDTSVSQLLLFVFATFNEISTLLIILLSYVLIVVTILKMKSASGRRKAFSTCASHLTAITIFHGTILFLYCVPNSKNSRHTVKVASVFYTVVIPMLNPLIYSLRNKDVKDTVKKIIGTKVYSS
As to the kind of experiment: Ca2+-imaging, control receptor mOREG. The following applies: for inhibition at 4 µM: compound applied at 4 μM, read-out: Percent Inhibition mOREG; for IC50: Table B. On the procedure:
as §2, with “plates. The last two columns of the plate (32 wells total) were used as control wells as follows: • negative control with HBSS buffer (16 wells) • positive control with ligands (16 wells).” for “plates.”
as §3

Some results are limits rather than exact numbers.

Sequence of OR8/OR7 (Q7QCC7 whole entry): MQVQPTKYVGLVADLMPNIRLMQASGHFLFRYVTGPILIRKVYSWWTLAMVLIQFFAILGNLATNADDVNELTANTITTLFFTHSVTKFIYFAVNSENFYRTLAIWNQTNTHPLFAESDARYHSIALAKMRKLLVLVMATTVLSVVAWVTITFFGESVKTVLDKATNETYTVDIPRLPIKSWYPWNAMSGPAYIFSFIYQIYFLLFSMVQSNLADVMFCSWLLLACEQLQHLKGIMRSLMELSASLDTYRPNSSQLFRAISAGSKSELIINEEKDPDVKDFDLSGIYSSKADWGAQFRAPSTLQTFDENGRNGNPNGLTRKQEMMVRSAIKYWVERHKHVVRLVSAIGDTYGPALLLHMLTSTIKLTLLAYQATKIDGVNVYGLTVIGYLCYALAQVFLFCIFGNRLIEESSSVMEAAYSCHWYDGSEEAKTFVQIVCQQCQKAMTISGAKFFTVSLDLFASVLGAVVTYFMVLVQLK
Sequence of OR8/OR7 (Q7PUT5 entry or part of it): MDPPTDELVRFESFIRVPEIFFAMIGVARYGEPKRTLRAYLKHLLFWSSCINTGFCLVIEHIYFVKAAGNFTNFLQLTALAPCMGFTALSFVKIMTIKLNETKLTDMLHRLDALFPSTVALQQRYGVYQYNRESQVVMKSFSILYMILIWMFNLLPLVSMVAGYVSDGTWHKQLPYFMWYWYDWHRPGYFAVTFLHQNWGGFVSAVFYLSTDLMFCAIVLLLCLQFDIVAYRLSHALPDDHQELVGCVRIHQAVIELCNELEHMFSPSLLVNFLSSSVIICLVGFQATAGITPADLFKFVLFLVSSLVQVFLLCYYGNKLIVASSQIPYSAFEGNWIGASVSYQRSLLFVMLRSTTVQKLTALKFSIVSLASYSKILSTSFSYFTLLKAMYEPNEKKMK

`COc1ccccc1C(=O)C1CCCN(C(=O)c2cccc(N3CCOCC3)c2)C1` (stereo not drawn) [RU-0029350]: the figures for the inhibition at 4 µM (at OR8/OR7; in test [1]; on mOREG) were 26 to 50%, less than 25% and 26 to 50%, respectively. Besides, the IC50 (usually the midpoint of a concentration-inhibition curve) at OR8/OR7 was more than 1000 nM.
On to `CCOC(=O)c1c(NC(C)=O)c(-c2ccc(OC)cc2)cn1Cc1ccccc1` [RU-0077733], for which the inhibition at 4 µM (on OR8/OR7; in test [1]; on mOREG) was less than 25% each time.
Take `C=CCOc1cccc(C(=O)N2CCCC(C(=O)c3ccccc3OC)C2)c1` (stereo not drawn) [RU-0029409]: the inhibition (usually the share of the control response that was lost under treatment) at 4 µM at OR8/OR7 is 26 to 50%; in test [1], less than 25%; at mOREG, less than 25%.
Regarding `O=C(C1CCC1)N(Cc1ccco1)Cc1nccn1Cc1ccccc1Cl` [RU-0048066], the inhibition at 4 µM (on OR8/OR7; in test [1]; at mOREG) was less than 25% throughout.
In the case of `O=C(c1c(F)c(F)cc(F)c1F)N1CCOC(Cc2ccccc2)C1` (stereo not drawn) [RU-0050393], the inhibition at 4 µM (at OR8/OR7; in test [1]; on mOREG) was 26 to 50% each time.
Take `CCn1c(C)c(C(=O)CN(CC2CCCO2)C(=O)C2C[C@H]2c2ccccc2)c(C)c1C(=O)OC` (stereo partly drawn) [RU-0071273]: the inhibition at 4 µM (on OR8/OR7; in test [1]; at mOREG) was 26 to 50% each time. The compound further yielded an IC50 against mOREG of 100 to 1000 nM.
For `O=C(NCCC(=O)N1CCOC(COCc2ccc(F)cc2Cl)C1)OCc1ccccc1` (stereo not drawn) [RU-0050344], the results for the inhibition at 4 µM (on OR8/OR7; in test [1]; on mOREG) were 26 to 50%, less than 25% and 26 to 50%, respectively.
Turning to `COCCCN(Cc1c(-c2ccccc2)noc1N1CCC(C)CC1)C(=O)c1ccccc1F` [RU-0036876], the inhibition at 4 µM is 51 to 74% at OR8/OR7, 26 to 50% in test [1] and 26 to 50% on mOREG. Moreover, the IC50 on OR8/OR7 is more than 1000 nM.
`Cc1cccc(NC(=O)CCC2CCN(C(=O)CCOc3ccccc3)CC2)c1` [RU-0030324]: the inhibition at 4 µM is 26 to 50% at OR8/OR7, 26 to 50% in test [1] and 51 to 74% on mOREG. Moreover, the IC50 against mOREG is more than 1000 nM.
Regarding `CCc1c(C(=O)NCc2cccnc2)cnn1-c1ccccc1` [RU-0048504], the inhibition at 4 µM (at OR8/OR7; in test [1]; on mOREG) was less than 25% in each case.
On to `CCN(CC)c1onc(-c2ccccc2)c1CN(CC1CCCO1)C(=O)c1ccc2c(c1)OCO2` (stereo not drawn) [RU-0036875], for which the inhibition at 4 µM (at OR8/OR7; in test [1]; at mOREG) was 51 to 74% throughout. In addition, the concentration for half-maximal inhibition (IC50) (on OR8/OR7; in test [1]; against mOREG) was more than 1000 nM throughout.
For the compound `CC(=O)OCC(=O)NCC1Cc2cc(Oc3ccccc3)ccc2O1` (stereo not drawn) [RU-0079120], the results for the inhibition at 4 µM (on OR8/OR7; in test [1]; at mOREG) were less than 25%, 26 to 50% and less than 25%, respectively.
In the case of `COc1ccc(-c2cc(-c3ccccc3)n(C(=O)CN3CCN(Cc4ccccc4)CC3)n2)cc1` [RU-0038795], the inhibition at 4 µM on OR8/OR7 was less than 25%; in test [1] it was 51 to 74%; on mOREG it was 26 to 50%. Further, in test [1], the IC50 is more than 1000 nM.
`Cc1ccccc1C(=O)N[C@@H]1CCCCC1NC(=O)C1CCN(C(=O)c2ccc(C(C)(C)C)cc2)CC1` (stereo partly drawn) [RU-0045678]: the inhibition at 4 µM (on OR8/OR7; in test [1]; on mOREG) was 26 to 50% in each case.
As to `COc1cccc(NC(=O)CCC2CCN(C(=O)CSc3ccccc3)CC2)c1` [RU-0032474], the inhibition at 4 µM (on OR8/OR7; in test [1]; on mOREG) was less than 25% throughout.
For `C=CCN(Cc1nccn1Cc1ccccc1F)C(=O)C1CCCC1` [RU-0058964], the values for the inhibition at 4 µM (at OR8/OR7; in test [1]; at mOREG) were 26 to 50%, 51 to 74% and 26 to 50%, respectively. Besides, the IC50 in test [1] was more than 1000 nM.
